The results in this text go back to patent publication US9447090B2, “Imidazopyridine compounds” (Astellas Pharma Inc., priority 2011, dated 2016).

One test concerns Wistar male rats. Kind of test: Measurement of antihypertensive effect in vivo: blood pressure via carotid cannula after oral dosing. To be noted: rat. The protocol:
Wistar male rats were used. Three days prior to administration of a drug, a cannula (PE-50, Becton, Dickinson and Company, Japan) filled with heparin physiological saline (200 U/mL, Ajinomoto Pharmaceuticals Co., Ltd.) was inserted and placed in the common carotid artery under anesthesia with intraperitoneal administration of 60 mg/kg of pentobarbital. The other end of the cannula was exposed to the back neck through the subcutaneous. After the recovery period, the placed cannula was connected to a pressure transducer (Life Kit DTS DX-100, Nihon Kohden Corporation) to record the blood pressure waveform through a Polygraph (AP-641G, Nihon Kohden Co., Ltd.) and PowerLab (ML870 PowerLab8/30 (AD Instruments Japan)). The heart rate was calculated using a heart rate measuring unit (AT-601G, Nihon Kohden Co., Ltd.). After stabilization of the blood pressure, the drug was orally administered to measure the blood pressure and the heart rates. The test compounds were administered by appropriately adding N,N-dimethylformamide, Polyethylene Glycol 400, TWEEN 80, a 0.5% aqueous methylcellulose solution, and a 0.5 M aqueous sodium bicarbonate solution, and 0.1 M hydrochloric acid therein according to the compounds and dissolving it.
The results from the measurement according to Test Example 3 are shown below according to the following criteria with a maximum value of the mean blood pressure reduction. A: <20 mmHg, B: 20 to 40 mmHg, and C: >40 mmHg

The next test deals with human purified sGC (Homo sapiens (Human), UniProt Q02108+Q02153). Kind of test: Measurement of sGC activation (enzyme): cGMP produced by human purified sGC, HTRF. Format: biochemical. To be noted: concentration giving 50% of maximum activation, maximum activation of Example 102 taken as 100%. The protocol: The activity of sGC was evaluated by measuring the amount of a cyclic guanosine monophosphate (cGMP) which is produced by human purified sGC.
Chain of human purified sGC (Q02153 whole entry): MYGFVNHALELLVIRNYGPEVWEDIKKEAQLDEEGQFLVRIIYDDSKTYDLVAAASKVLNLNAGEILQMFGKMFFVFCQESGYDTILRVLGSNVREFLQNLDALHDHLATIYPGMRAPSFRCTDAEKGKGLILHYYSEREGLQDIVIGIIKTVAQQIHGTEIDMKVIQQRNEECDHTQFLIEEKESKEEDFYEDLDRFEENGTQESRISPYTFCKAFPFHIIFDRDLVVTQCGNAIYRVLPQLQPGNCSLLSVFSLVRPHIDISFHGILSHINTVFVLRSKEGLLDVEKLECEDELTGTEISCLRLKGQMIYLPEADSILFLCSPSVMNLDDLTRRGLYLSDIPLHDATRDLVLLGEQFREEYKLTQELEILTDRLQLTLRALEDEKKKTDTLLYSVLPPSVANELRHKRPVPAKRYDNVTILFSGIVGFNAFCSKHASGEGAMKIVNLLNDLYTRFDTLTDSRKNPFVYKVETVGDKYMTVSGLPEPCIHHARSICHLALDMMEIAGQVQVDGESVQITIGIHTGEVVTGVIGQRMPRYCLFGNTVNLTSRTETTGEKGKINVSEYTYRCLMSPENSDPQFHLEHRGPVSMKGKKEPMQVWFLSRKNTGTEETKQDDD
Chain of human purified sGC (Q02108 whole entry): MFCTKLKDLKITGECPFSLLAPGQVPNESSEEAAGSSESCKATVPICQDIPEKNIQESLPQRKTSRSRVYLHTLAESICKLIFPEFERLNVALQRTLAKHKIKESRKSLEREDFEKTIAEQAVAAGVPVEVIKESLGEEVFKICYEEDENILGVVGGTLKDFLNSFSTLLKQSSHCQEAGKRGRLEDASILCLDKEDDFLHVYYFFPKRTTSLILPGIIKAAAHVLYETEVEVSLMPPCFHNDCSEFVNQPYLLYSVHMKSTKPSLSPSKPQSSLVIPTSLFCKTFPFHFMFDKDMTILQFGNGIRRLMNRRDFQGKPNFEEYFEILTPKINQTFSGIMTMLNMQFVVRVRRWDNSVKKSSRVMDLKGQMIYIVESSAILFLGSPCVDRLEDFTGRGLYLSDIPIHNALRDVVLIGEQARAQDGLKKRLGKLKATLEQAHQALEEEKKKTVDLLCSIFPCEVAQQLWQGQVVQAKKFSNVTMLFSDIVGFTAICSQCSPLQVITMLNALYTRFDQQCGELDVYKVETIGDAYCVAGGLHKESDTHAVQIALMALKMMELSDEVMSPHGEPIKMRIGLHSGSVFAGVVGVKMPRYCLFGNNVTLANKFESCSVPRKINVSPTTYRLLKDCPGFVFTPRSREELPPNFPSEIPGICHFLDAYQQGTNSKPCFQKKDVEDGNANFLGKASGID
A test compound was dissolved in DMSO and diluted 20-fold with ultrapure water. 2 μL of the diluted test compound solution (maximum concentration 100 μM), 2 μL of a substrate solution [0.5 μM TEBA, 0.03 μM dithiothreitol, 0.01 μM GTP, 0.04 μM MgCl2, and 0.03 μM sodium nitroprusside (SNP)], and 6 μL of a human enzyme suspension were added to 384-well plates (manufactured by Greiner Bio-One), and incubated at room temperature for one hour. The quantitative determination of cGMP is using HTRF which based on the competition between sample cGMP and fluorescent dye labeled cGMP for binding to a cGMP-specific antibody.
The test results of some Example compounds that are the compounds of the formula (I) of the present invention are shown below. The sGC activation of the test compound was calculated by taking the activation when the compound was not added as 100%. As compared with the activation when the compound was not added, it was recognized that a compound having a sGC activation of more than 300% has sGC activation. In addition, in Tables, Ex represents Example number in which the test compound is described and the sGC activation [%] represents sGC activation (%).
Furthermore, the EC50 [μM] value was calculated as another parameter for expressing sGC activation. This parameter indicates the concentration of the evaluated compound giving 50% of a maximum activation, which is calculated based on the maximum activation that compound of Example 102 is added, which is taken as 100%. In this connection, when a known sGC activator, YC-1 (Lificiguat, [5-(1-benzyl-1H-indazol-3-yl)-2-furyl]methanol), was evaluated according to the above Test Example 1, its maximum activation was 52% of the maximum activation for compound of Example 102. Further, “−” means no evaluation.
On the technique in general: In TR-FRET formats the signal depends on donor and acceptor labels being close together.

For `Cc1nc2c(OCc3c(F)cccc3F)cccn2c1C(=O)N[C@@H]1c2ccccc2C[C@@H]1O.Cl` [Ex 431], the “Blood pressure reduction (maximum value of the mean blood pressure reduction)” value (“Blood pressure reduction” below) with Wistar male rats (10 mg/kg po) was “B (B: 20 to 40 mmHg)”.
As to `Cc1nc2c(OCc3c(F)cccc3F)cccn2c1C(=O)N[C@@H]1c2ccccc2C[C@H]1C(=O)O` [Ex 434], the concentration giving a half-maximal response (EC50) (usually the concentration needed to bring the measured effect to its halfway point) at human purified sGC came to 7.3 µM. For the same compound, in the test on Wistar male rats (30 mg/kg po), the “Blood pressure reduction” value is listed as “C (C: >40 mmHg)”.
With `Cc1ccc(C(CO)(CO)NC(=O)c2c(C)nc3c(OCc4c(F)cccc4F)cccn23)cc1` [Ex 827], the “Blood pressure reduction” value in the test with Wistar male rats (10 mg/kg po) was “B (B: 20 to 40 mmHg)”.
